Measurements: US20250066371A1, “FLUOROALKOXYALKYLENE-DIHYDROIMIDAZO[5,1-D]TETRAZINONE COMPOUNDS AND RELATED COMPOUNDS AND THEIR USE IN TREATING MEDICAL CONDITIONS” (priority 2023, published 2025)

Tests used:
Assay in all cases: Cell panel nuclear dye assay
Format in all cases: cell-based
Colo 320DM = conditions: Homo sapiens, 120 h, Colon, 5-day incubation
Procedure: (§1) Cells were grown in RPMI1640, 10% FBS, 2 mM L-alanyl-L-glutamine, 1 mM Na pyruvate, or a special medium. Cells were seeded into 384-well plates and incubated in a humidified atmosphere of 5% CO2 at 37° C. Compound was added the day following cell seeding. At the same time, a time zero untreated cell plate was generated. After a 5-day incubation period, cells were fixed and stained to allow fluorescence imaging of nuclei.
(§2) Compounds were serially diluted in 2-fold steps from the highest test concentration specified, and assayed over 10 concentrations with a maximum assay concentration of 0.1% DMSO. Automated fluorescence microscopy was carried out using a Molecular Devices ImageXpress Micro XL high-content imager, and images were collected with a 4× objective. 16-bit TIFF images were acquired and analyzed with MetaXpress 5.1.0.41 software.
(§3) Cell proliferation was measured by the fluorescence intensity of an incorporated nuclear dye. The output is referred to as the relative cell count, where the measured nuclear intensity is transformed to percent of control (POC) using the following formula: […]
(§4) Cell count IC50 is the test compound concentration at 50% of maximal possible response. EC50 is the test compound concentration at the curve inflection point or half the effective response (parameter C of the fitted curve solution). GI50 is the concentration needed to reduce the observed growth by half (midway between the curve maximum and the time zero value). Activity area is an estimate of the integrated area above the curve. Activity area values range from 0-10, where a value of zero indicates no inhibition of proliferation at all concentrations, and a value of 10 indicates complete inhibition of proliferation at all concentrations. In rare instances, values <0 or >10 may be observed. In these instances, values <0 should be considered as equivalent to 0, whereas values >10 should be considered equivalent to 10.

CCF-STTG1 = conditions: Homo sapiens, 120 h, Glioma (astrocytoma), 5-day incubation
Procedure: as §1, §2, §3, §4

647-V = conditions: Homo sapiens, 120 h, Bladder, 5-day incubation
Procedure: as §1, §2, §3, §4

C32 = conditions: Homo sapiens, 120 h, Melanoma, 5-day incubation
Procedure: as §1, §2, §3, §4

A172 = conditions: Homo sapiens, A 172, 120 h, Glioma (glioblastoma), 5-day incubation
Procedure: as §1, §2, §3, §4

SCC-4 = conditions: Homo sapiens, 120 h, Head & neck (squamous cell carcinoma, tongue), 5-day incubation
Procedure: as §1, §2, §3, §4

SH-4 = conditions: Homo sapiens, 120 h, Melanoma, 5-day incubation
Procedure: as §1, §2, §3, §4

639-V = conditions: Homo sapiens, 120 h, Bladder (ureter), 5-day incubation
Procedure: as §1, §2, §3, §4

VA-ES-BJ = conditions: 120 h, Sarcoma (epitheloid), 5-day incubation
Procedure: as §1, §2, §3, §4

DMS53 = conditions: Homo sapiens, DMS-53, 120 h, Lung (SCLC), 5-day incubation
Procedure: as §1, §2, §3, §4

CHP-212 = conditions: Homo sapiens, 120 h, Neuroblastoma, 5-day incubation
Procedure: as §1, §2, §3, §4

DK-MG = conditions: 120 h, Glioma, 5-day incubation
Procedure: as §1, §2, §3, §4

NCI-H446 = conditions: Homo sapiens, 120 h, Lung (SCLC), 5-day incubation
Procedure: as §1, §2, §3, §4

HOS = conditions: Homo sapiens, 120 h, Osteosarcoma, 5-day incubation
Procedure: as §1, §2, §3, §4

SJRH30 = conditions: Homo sapiens, 120 h, Sarcoma (rhabdomyosarcoma), 5-day incubation
Procedure: as §1, §2, §3, §4

A427 = conditions: Homo sapiens, A-427, 120 h, Lung (NSCLC), 5-day incubation
Procedure: as §1, §2, §3, §4

SHP-77 = conditions: Homo sapiens, SHP77, 120 h, Lung (SCLC), 5-day incubation
Procedure: as §1, §2, §3, §4

OE33 = conditions: Homo sapiens, 120 h, Head & neck (esophageal carcinoma), 5-day incubation
Procedure: as §1, §2, §3, §4

BCP-1 = conditions: 120 h, Lymphoma (B-cell), 5-day incubation
Procedure: as §1, §2, §3, §4

ST486 = conditions: Homo sapiens, 120 h, Lymphoma (Burkitt's), 5-day incubation
Procedure: as §1, §2, §3, §4

SK-LMS-1 = conditions: Homo sapiens, 120 h, Sarcoma (leiomyosarcoma), 5-day incubation
Procedure: as §1, §2, §3, §4

NCI-H747 = conditions: Homo sapiens, 120 h, Colon (cecum), 5-day incubation
Procedure: as §1, §2, §3, §4

SNB-19 = conditions: Homo sapiens, 120 h, Glioma (astrocytoma), 5-day incubation
Procedure: as §1, §2, §3, §4

NCI-H441 = conditions: Homo sapiens, 120 h, Lung (NSCLC), 5-day incubation
Procedure: as §1, §2, §3, §4

SR = conditions: Homo sapiens, 120 h, Lymphoma (large cell immunoblastic), 5-day incubation
Procedure: as §1, §2, §3, §4

NC(=O)c1ncn2c(=O)n(CCOC(F)(F)F)nnc12 [Compound I-1, 4-Oxo-3-(2-(trifluoromethoxy)ethyl)-3,4-dihydroimidazo[5,1-d][1,2,3,5]tetrazine-8-carboxamide]
30 to 70 µM: EC50 (Colo 320DM) | IC50 (Colo 320DM) | IC50 (CCF-STTG1) | EC50 (647-V) | IC50 (647-V) | EC50 (C32) | EC50 (A172) | EC50 (SH-4) | IC50 (SH-4) | IC50 (DK-MG) | EC50 (NCI-H446) | IC50 (NCI-H446) | EC50 (HOS) | IC50 (HOS) | EC50 (A427) | IC50 (A427) | EC50 (SHP-77) | EC50 (OE33) | IC50 (OE33) | EC50 (SK-LMS-1) | IC50 (SK-LMS-1) | EC50 (SNB-19) | IC50 (SNB-19)
70 to 150 µM: IC50 (C32) | IC50 (A172) | EC50 (VA-ES-BJ) | IC50 (SHP-77)
> 150 µM: IC50 (SCC-4) | IC50 (VA-ES-BJ) | EC50 (NCI-H747) | IC50 (NCI-H747) | EC50 (NCI-H441) | IC50 (NCI-H441)
≤ 30 µM: EC50 (CCF-STTG1) | EC50 (SCC-4) | EC50 (639-V) | IC50 (639-V) | EC50 (DMS53) | IC50 (DMS53) | EC50 (CHP-212) | IC50 (CHP-212) | EC50 (DK-MG) | EC50 (SJRH30) | IC50 (SJRH30) | EC50 (BCP-1) | IC50 (BCP-1) | EC50 (ST486) | IC50 (ST486) | EC50 (SR) | IC50 (SR)
